# From the supplement of paper PMC10883282
# Structures can show the parent of a compound that is named as a salt. ± gives the standard deviation of the averaged measurements.
# System: SW684
# Experiment: relative viability vs DMSO control (72 h) (fraction); higher = more viable cells
# Procedure, shortened: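 Sarcoma cell lines went into 384-well plates at densities chosen to reach 80–90% confluence. After 24 h, each well received 2.5 µl of serially diluted compound, with source plates running from 10 mM to 0.0002 mM, and the plates were kept 72 h at 37 °C, 5% CO2, alongside 0.1% DMSO vehicle and a 5 µM positive control. Relative viability was derived from ATPLite readings as percent growth and averaged over up to triplicate wells. The data were then rescaled so that 1 stands for full and 0 for none.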
Compound,relative viability (0.00017 µM),relative viability (0.00051 µM),relative viability (0.00152 µM),relative viability (0.00457 µM),relative viability (0.01372 µM),relative viability (0.04115 µM),relative viability (0.1235 µM),relative viability (0.3704 µM),relative viability (1.111 µM),relative viability (3.333 µM),relative viability (10 µM)
CC[C@H](Nc1ncnc2[nH]cnc12)c1nc2cccc(F)c2c(=O)n1-c1ccccc1 [Idelalisib],1.18 ± 0.064,1.22 ± 0.025,1.18 ± 0.07,1.23 ± 0.045,1.02 ± 0.08,0.946 ± 0.023,0.875 ± 0.049,0.772 ± 0.049,0.658 ± 0.053,0.6 ± 0.014,0.513 ± 0.017
COc1cccc2c1C(=O)c1c(O)c3c(c(O)c1C2=O)C[C@@](O)(C(=O)CO)C[C@@H]3O[C@H]1C[C@H](N)[C@H](O)[C@H](C)O1 [Doxorubicin Hydrochloride],1.21 ± 0.03,1.21 ± 0.023,1.2 ± 0.058,1.157 ± 0.0079,1.06 ± 0.044,0.96 ± 0.031,0.821 ± 0.062,0.731 ± 0.14,0.813 ± 0.013,0.803 ± 0.033,0.693 ± 0.024
Cc1ccc(NC(=O)c2ccc(CN3CCN(C)CC3)cc2)cc1Nc1nc(-c2cccnc2)cs1 [Masitinib],1.04 ± 0.017,1.07 ± 0.038,1.11 ± 0.029,1.08 ± 0.027,1.07 ± 0.034,1.1 ± 0.025,1.06 ± 0.043,1 ± 0.025,0.851 ± 0.014,0.508 ± 0.066,0.0554 ± 0.0057
Cn1cnc2c(F)c(Nc3ccc(Br)cc3F)c(C(=O)NOCCO)cc21 [Binimetinib],1.12 ± 0.038,1.17 ± 0.046,1.11 ± 0.03,1.11 ± 0.028,1.14 ± 0.037,1.12 ± 0.069,1.06 ± 0.058,1.01 ± 0.071,0.953 ± 0.035,0.847 ± 0.035,0.642 ± 0.018
CC(=O)Nc1cccc(-n2c(=O)n(C3CC3)c(=O)c3c(Nc4ccc(I)cc4F)n(C)c(=O)c(C)c32)c1 [Trametinib],1.16 ± 0.02,1.17 ± 0.045,1.19 ± 0.04,1.14 ± 0.035,1.05 ± 0.0092,0.859 ± 0.018,0.615 ± 0.0083,0.552 ± 0.011,0.511 ± 0.017,0.517 ± 0.0077,0.4614 ± 0.002
Cc1cc(Nc2ncnc3ccc(NC4=NC(C)(C)CO4)cc23)ccc1Oc1ccn2ncnc2c1 [Tucatinib],1.17 ± 0.019,1.2 ± 0.024,1.2 ± 0.024,1.18 ± 0.03,1.21 ± 0.068,1.21 ± 0.068,1.22 ± 0.09,1.19 ± 0.098,1.14 ± 0.016,1.13 ± 0.074,1.08 ± 0.0088
CCN1CCN(Cc2ccc(Nc3ncc(F)c(-c4cc(F)c5nc(C)n(C(C)C)c5c4)n3)nc2)CC1 [Abemaciclib],1.13 ± 0.036,1.16 ± 0.06,1.13 ± 0.048,1.12 ± 0.035,1.1 ± 0.051,1.11 ± 0.051,1.04 ± 0.037,0.894 ± 0.059,0.781 ± 0.028,0.832 ± 0.027,0.825 ± 0.035
Cc1nc(-c2cn3c(n2)-c2ccc(-c4cnn(C(C)(C)C(N)=O)c4)cc2OCC3)n(C(C)C)n1 [Taselisib],1.09 ± 0.027,1.1 ± 0.036,1.06 ± 0.019,1.01 ± 0.027,0.923 ± 0.036,0.75 ± 0.021,0.634 ± 0.009,0.549 ± 0.017,0.477 ± 0.0088,0.445 ± 0.026,0.451 ± 0.015
C[C@@H]1COCCN1c1cc(-c2ccnn2C)c2ccnc(-c3ccn[nH]3)c2n1,1.14 ± 0.056,1.19 ± 0.041,1.18 ± 0.085,1.17 ± 0.069,1.14 ± 0.082,1.06 ± 0.056,1.04 ± 0.048,0.919 ± 0.036,0.719 ± 0.039,0.461 ± 0.023,0.367 ± 0.01
CO[C@H]1C[C@@H]2CC[C@@H](C)[C@@](O)(O2)C(=O)C(=O)N2CCCC[C@H]2C(=O)O[C@H]([C@H](C)C[C@@H]2CC[C@@H](OP(C)(C)=O)[C@H](OC)C2)CC(=O)[C@H](C)/C=C(\C)[C@@H](O)[C@@H](OC)C(=O)[C@H](C)C[C@H](C)/C=C/C=C/C=C/1C [Ridaforolimus],1.14 ± 0.081,1.11 ± 0.065,1.07 ± 0.021,0.971 ± 0.07,0.896 ± 0.043,0.862 ± 0.026,0.839 ± 0.033,0.846 ± 0.049,0.833 ± 0.025,0.791 ± 0.045,0.749 ± 0.068
CCc1cc2c(cc1N1CCC(N3CCOCC3)CC1)C(C)(C)c1[nH]c3cc(C#N)ccc3c1C2=O [Alectinib],1.15 ± 0.037,1.13 ± 0.066,1.11 ± 0.035,1.129 ± 0.011,1.19 ± 0.058,1.2 ± 0.1,1.21 ± 0.055,1.22 ± 0.073,1.2 ± 0.055,1.16 ± 0.022,1.18 ± 0.04
COCc1c(-c2cc3cc(C)cc(OC)c3s2)c2c(N)ncnn2c1CN1CCNC(=O)C1 [Rogaratinib],1.11 ± 0.051,1.16 ± 0.028,1.16 ± 0.088,1.16 ± 0.043,1.15 ± 0.03,1.15 ± 0.018,1.12 ± 0.082,1.14 ± 0.061,1.09 ± 0.018,1.04 ± 0.019,0.898 ± 0.038
C[C@@H]1CCN(C(=O)CC#N)C[C@@H]1N(C)c1ncnc2[nH]ccc12 [Tofacitinib],1.2 ± 0.035,1.24 ± 0.023,1.2 ± 0.004,1.23 ± 0.028,1.215 ± 0.012,1.192 ± 0.0029,1.19 ± 0.018,1.22 ± 0.031,1.11 ± 0.021,1.1 ± 0.015,0.943 ± 0.029
O=C(Cc1ccc(-c2ccc(OCCN3CCOCC3)cc2)cn1)NCc1ccccc1 [KX2-391],1.13 ± 0.039,1.15 ± 0.03,1.18 ± 0.014,1.182 ± 0.011,1.15 ± 0.025,1.04 ± 0.073,0.77 ± 0.02,0.696 ± 0.027,0.751 ± 0.024,0.762 ± 0.044,0.734 ± 0.033
C[C@@H](c1ccc2nccn2c1)n1nnc2ncc(-c3cnn(C)c3)nc21 [Volitinib],1.17 ± 0.067,1.17 ± 0.028,1.17 ± 0.022,1.14 ± 0.083,1.18 ± 0.048,1.17 ± 0.034,1.16 ± 0.064,1.15 ± 0.032,1.13 ± 0.019,1.13 ± 0.018,0.968 ± 0.092
C[C@]1(O)C[C@@H](c2nc(-c3ccc4ccc(-c5ccccc5)nc4c3)c3c(N)nccn32)C1 [Linsitinib],1.13 ± 0.073,1.17 ± 0.016,1.18 ± 0.021,1.159 ± 0.0094,1.16 ± 0.065,1.14 ± 0.021,1.13 ± 0.039,1.11 ± 0.04,1.09 ± 0.035,1.07 ± 0.019,0.978 ± 0.057
COc1cc2c(Oc3ccc4[nH]c(C)cc4c3F)ncnc2cc1OCCCN1CCCC1 [Cediranib],1.18 ± 0.024,1.17 ± 0.076,1.17 ± 0.03,1.17 ± 0.059,1.16 ± 0.033,1.169 ± 0.011,1.15 ± 0.029,1.19 ± 0.033,1.2 ± 0.035,1.19 ± 0.039,0.987 ± 0.058
CC(C)(C)c1cc(NC(=O)Nc2ccc(-c3cn4c(n3)sc3cc(OCCN5CCOCC5)ccc34)cc2)no1 [Quizartinib],1.11 ± 0.14,1.209 ± 0.012,1.21 ± 0.095,1.23 ± 0.019,1.2 ± 0.052,1.14 ± 0.012,1.21 ± 0.03,1.23 ± 0.061,1.14 ± 0.078,1.03 ± 0.038,0.734 ± 0.077
COc1cc2/c(=N/c3ccc(Br)cc3F)nc[nH]c2cc1OCC1CCN(C)CC1 [Vandetanib],1.13 ± 0.018,1.09 ± 0.075,1.14 ± 0.035,1.12 ± 0.074,1.16 ± 0.033,1.16 ± 0.02,1.16 ± 0.069,1.168 ± 0.0075,1.15 ± 0.038,1.03 ± 0.054,0.132 ± 0.016
